Source: patent US12486242B2, “Long-acting low-addiction HNK derivative and preparation method therefor” (SHENZHEN RUIJIAN BIOTECHNOLOGY CO., LTD, priority 2020, dated 2025)
“Also recorded” adds a separate entry of the source. Structures can show the parent of a compound that is named as a salt.

Columns and labels:
mice [1] = assay: Forced swimming test (FST), immobility time; type: in vivo; conditions: for antidepressant effect (immobility time): intragastric administration, mice; for antidepressant effect: dose not given; for effect on the 7th day / course of efficacy within 7 days: intragastric; for course of efficacy within 7 days: 1 hour to 7 days
Method: One hour before the forced swimming test (FST), the mice were transferred to the laboratory. The test was conducted under normal light condition and monitored by a digital camera. During the test, the mice were individually placed in transparent glass cylinders (28.5 cm in height, 14 cm in diameter) filled with 20 cm height of water (23±1° C.). On the first day, the mice were trained for 6 minutes and then removed from the cylinder. On the second day, the mice were administered saline, HNK, Compound 16, Compound C, and Compound D, and after different time periods, their immobility time was tested. During the last 4 minutes of the entire 6-minute swimming test, the static time was recorded through EthoVision XT (Noldus, Netherlands) of Noldus system. The static time was defined as passive floating, that is there was no other movement except the movements necessary to keep the animal's head above the water. After every two to three tests, the water in the cylinders was replaced. After the swimming test, the mice were removed from the water and dried under an infrared lamp.
The mice were given 1 mg (A), 10 mg (B) and 30 mg (C) of HNK and Compund I6 by intragastric administration, respectively, and their immobility time was measured after 1 hour and 7 days. The percentage of immobility time is expressed as mean±SEM. *p<0.05, **p<0.01, compared to base test. Mice of each group was N=8. Saline: saline group; I6: Compound I6 treatment group; HNK: 2R,6R-hydroxynorketamine treatment group.

mice [2] = assay: Behavioral sensitization experiment (spontaneous activity measurement); type: in vivo, C57BL/6J mice; conditions: doses 5 mg, 10 mg, 30 mg, intragastric, d1, d7, d15
Method: (§1) Animals: Male C57BL/6J mice of 8-12 weeks old were randomly divided into groups, 10 mice in each group, with body weight of 18-22 g, fed at room temperature (22±1° C.), under humidity of (50±10)%, illumination time from 8:00 to20:00. The mice had free access to food and water, and adapted to the experimental environment for at least 2-3 days before the experiments. All experiments were conducted from 8:00 to 16:00.
1.1 Small animal spontaneous activity measurement: An animal spontaneous activity infrared analysis system consists of a spontaneous activity box, an infrared probe device and a data acquisition system. The size of the spontaneous activity box is 40 cm×40 cm×65 cm, with sound isolation and light isolation, and mounted with a ventilation device. The activity statuses of the animals were recorded by the infrared probe, and the numbers of spontaneous activities of the animals were calculated. In order to test the effect of drugs on spontaneous activities of mice, the mice were randomly divided into 4 groups with 10 mice in each group. The Groups included: vehicle, I6, C, D (5.0, 10.0, 30.0 mg/kg), mor (10 mg/kg). The mice were administrated intragastrically once a day in the morning for 7 consecutive days; after that, the drugs withdrew for 7 days (without any treatment). On the 15th day, mice in each group were given Veh and the drugs (5.0, 10.0, 30.0 mg/kg) by intragastric administration to stimulate. Spontaneous activity of the mice within 1 hour was measured immediately after administration at d1, d7 and d15.
Statistical analysis: Experimental data were expressed as X±SEM. Graphpad software was used for statistical analysis, and t-test was used for comparison between two groups. One-way ANOVA analysis was used for comparison among multiple groups, and then LSD method was used for pairwise comparison.

mice [3] = assay: Position preference (CPP) experiment, three-room system; type: in vivo, C57BL/6J mice; conditions: doses 5 mg, 10 mg, 30 mg, intragastric, 6 days training, residence time in white box within 15 min
Method: as §1
1.2 CPP experiment: A three-room CPP system includes black and white boxes (25 cm×25 cm×30 cm) at left and right sides, separated by a middle box (10 cm×25 cm×30 cm). During the experiment, mice were put into the middle box and could freely move to the black and white boxes. A door with the size of 5 cm×5 cm was arranged between the middle box and each of the black and white boxes. The experiment adopted a biased procedure, which had three stages of pre-test, training, and test stages. During the whole experiment, the environmental conditions such as light, color and smell in the boxes were guaranteed to be consistent.
Pre-test stage: On days 1-3, the spacer plates between the boxes were removed, and all mice were put into the middle box after being injected with saline subcutaneously, allowing them to move freely in the boxes for 15 min, once a day for 3 consecutive days. The residence time of the mice in the black and white boxes was respectively recorded to determine the natural preference of the mice. The mice were trained with the non-natural preference box as the companion medicine box. […]
Test stage: on day 10, the spacer plates were removed, and the mice were put into the middle box allowing to move freely. At the same time, the residence time of the mice in the white box within 15 min were recorded.
Position preference was tested by a three-room system. […] After continuous training for 6 days, the test was carried out, and the residence times of the mice within 15 min in the white box were recorded. […]

[4] = Applicant's experimental studies on HNK (efficacy duration, addiction); conditions: in vivo
NMDA receptor = conditions: cited from earlier work
patients = conditions: within 72 hours after a single intravenous injection, 0.5 mg/kg; cited from earlier work

Compound	antidepressant effect (immobility time) (mice [1]; 30 mg)	antidepressant effect (mice [1])	behavioral sensitization effect on mice (mice [2])	position preference effect on mice (mice [3])	antidepressant effect (immobility time) (mice [1]; 1 mg)	antidepressant effect (immobility time) (mice [1]; 10 mg)	course of efficacy within 7 days (mice [1]; 10 mg)	course of efficacy within 7 days (mice [1]; 30 mg)	other results
N[C@]1(c2ccccc2Cl)CCC[C@H](OC(=O)c2ccc(CN3CCOCC3)cc2)C1=O [Compound D]	no antidepressant effect	no antidepressant effect	behavioral sensitizing effect; also recorded: behavioral sensitization effect	induced position preference	–	–	–	–	–
N[C@@]1(c2ccccc2Cl)CCC[C@@H](O)C1=O [HNK, (2R,6R)-6-hydroxydemethylketamine, reference compound]	antidepressant effect	–	–	–	no antidepressant effect	antidepressant effect	decreased rapidly	decayed rapidly	effect on the 7th day (mice [1]; 10 mg): substantially had no effect; effect on the 7th day (mice [1]; 30 mg): substantially had no effect; addiction [4]: a certain degree of addiction; duration of efficacy after administration [4]: basically lost activity within one week; activity to NMDA receptor (NMDA receptor): no activity
N[C@@]1(c2ccccc2Cl)CCC[C@@H](OC(=O)c2ccoc2)C1=O [Compound I6, (2R,6R)-6-(3-furan)formyloxynorketamine hydrochloride salt]	antidepressant effect	–	–	–	no antidepressant effect	antidepressant effect	substantially did not decrease	substantially did not decrease	difference between the 10 mg and 30 mg treatment groups (mice [1]; 10 mg vs 30 mg): no significant difference; immobility time during forced swimming (mice [1]; compared with the HNK-treated group): less immobility time; antidepressant effect at the 7th day after administration (mice [1]; compared with the HNK-treated group, dose not stated): significant antidepressant effect; behavioral sensitization effect on mice (mice [2]; hydrochloride salt): no behavioral sensitization effect; also recorded: non-sensitization effect; position preference effect on mice (mice [3]; hydrochloride salt): no position preference effect; also recorded: non-position preference effect
CNC1(c2ccccc2Cl)CCCCC1=O (centres unmarked) [ketamine]	–	–	–	–	–	–	–	–	patients with Hamilton Depression Scale score decreased by 50% or more (patients): more than 50%
CN[C@@]1(c2ccccc2Cl)CCC[C@@H](OC(=O)c2ccccc2)C1=O [Compound C]	no antidepressant effect	no antidepressant effect	behavioral sensitizing effect; also recorded: behavioral sensitization effect	induced position preference	–	–	–	–	–
